According to patent US7314885B2, “Pyrrole compounds useful as kinase inhibitors” (Vertex Pharmaceuticals Incorporated, priority 2003, dated 2008):

Biological target: c-Met (Homo sapiens, UniProt P08581)
Test: Ki determination for the inhibition of c-Met (coupled enzyme system)
Format: biochemical
Details: coupled enzyme assay; 200 μM ATP, 10 μM polyGluTyr, 80 nM c-Met, 30° C.
Description: Ki Determination for the Inhibition of c-Met
Compounds were screened for their ability to inhibit c-Met kinase activity using a standard coupled enzyme system (Fox et al., Protein Sci. 1998, 7, 2249). Reactions were carried out in a solution containing 100 mM HEPES (pH 7.5), 10 mM MgCl2, 25 mM NaCl, 300 μM NADH, 1 mM DTT, and 1.5% DMSO. Final substrate concentrations in the assay were 200 μM ATP (Sigma Chemicals, St Louis, Mo.) and 10 μM polyGluTyr (Sigma Chemical Company, St. Louis). Reactions were carried out at 30° C. and 80 nM c-Met. Final concentrations of the components of the coupled enzyme system were 2.5 mM phosphoenolpyruvate, 300 μM NADH, 30 μg/ml pyruvate kinase and 10 μg/ml lactate dehydrogenase.
An assay stock buffer solution was prepared containing all of the reagents listed above with the exception of ATP and a test compound of the present invention. The assay stock buffer solution (175 μl) was incubated in a 96 well plate with 5 μl of the test compound of the present invention at final concentrations spanning 0.006 μM to 12.5 μM at 30° C. for 10 minutes. Typically, a 12-point titration was conducted by preparing serial dilutions (from 10 mM compound stocks) with DMSO of the test compounds of the present invention in daughter plates. The reaction was initiated by the addition of 20 μl of ATP (final concentration 200 μM). Rates of reaction were obtained using a Molecular Devices Spectramax plate reader (Sunnyvale, Calif.) over 10 minutes at 30° C. The Ki values were determined from the rate data as a function of inhibitor concentration.

Chain of c-Met (P08581 25-1390): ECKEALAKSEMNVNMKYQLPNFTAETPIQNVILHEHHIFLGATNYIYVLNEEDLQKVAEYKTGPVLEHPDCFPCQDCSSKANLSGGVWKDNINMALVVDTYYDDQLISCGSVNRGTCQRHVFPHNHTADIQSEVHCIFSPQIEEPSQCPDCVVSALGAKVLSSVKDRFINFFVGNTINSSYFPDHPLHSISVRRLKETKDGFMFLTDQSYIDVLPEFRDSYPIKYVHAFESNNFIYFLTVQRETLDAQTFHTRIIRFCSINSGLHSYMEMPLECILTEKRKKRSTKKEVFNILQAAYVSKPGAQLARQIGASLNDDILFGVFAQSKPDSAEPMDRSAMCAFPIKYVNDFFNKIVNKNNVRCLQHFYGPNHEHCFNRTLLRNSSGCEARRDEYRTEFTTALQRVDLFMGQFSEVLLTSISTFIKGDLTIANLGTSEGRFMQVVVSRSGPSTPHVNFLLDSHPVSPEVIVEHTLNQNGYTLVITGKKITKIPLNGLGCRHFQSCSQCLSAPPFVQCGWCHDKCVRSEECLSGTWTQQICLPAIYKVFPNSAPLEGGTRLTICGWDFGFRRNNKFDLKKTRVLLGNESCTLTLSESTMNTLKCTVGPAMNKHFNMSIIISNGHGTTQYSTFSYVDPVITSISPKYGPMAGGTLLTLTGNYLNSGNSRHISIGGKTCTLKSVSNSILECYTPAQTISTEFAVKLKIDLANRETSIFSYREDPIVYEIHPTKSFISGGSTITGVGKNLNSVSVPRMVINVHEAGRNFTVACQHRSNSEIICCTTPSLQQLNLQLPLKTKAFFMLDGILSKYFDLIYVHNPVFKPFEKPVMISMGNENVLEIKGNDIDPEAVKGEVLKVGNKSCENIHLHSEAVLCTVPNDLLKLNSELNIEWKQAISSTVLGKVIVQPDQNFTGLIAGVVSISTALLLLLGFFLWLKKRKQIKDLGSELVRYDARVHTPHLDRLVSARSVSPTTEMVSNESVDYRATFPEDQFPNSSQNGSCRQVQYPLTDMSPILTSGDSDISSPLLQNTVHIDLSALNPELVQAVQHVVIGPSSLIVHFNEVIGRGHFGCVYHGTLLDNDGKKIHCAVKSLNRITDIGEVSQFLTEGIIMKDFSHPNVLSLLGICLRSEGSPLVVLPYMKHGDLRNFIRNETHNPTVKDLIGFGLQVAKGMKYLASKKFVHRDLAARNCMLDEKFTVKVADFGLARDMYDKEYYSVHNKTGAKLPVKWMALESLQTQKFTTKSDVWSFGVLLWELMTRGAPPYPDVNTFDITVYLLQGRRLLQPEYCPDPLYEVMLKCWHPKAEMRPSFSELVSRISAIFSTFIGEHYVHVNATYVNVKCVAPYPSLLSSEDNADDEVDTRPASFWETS

Row | Structure (SMILES) | Ki [µM]
1 | O=C(NC[C@@H]1CCCO1)c1cc(-c2nnnn2-c2cccc(F)c2F)c[nH]1 (stereo in doubt) [Compound I-24, 4-[1-(2,3-Difluoro-phenyl)-1H-tetrazol-5-yl]-1H-pyrrole-2-carboxylic acid (tetrahydro-furan-2-ylmethyl)-amide] | 1 to 10
2 | O=C(NC[C@@H]1CCCO1)c1cc(-n2cncc2-c2cccc(F)c2F)c[nH]1 [Compound I-10, 4-[5-(2,3-Difluoro-phenyl)-imidazol-1-yl]-1H-pyrrole-2-carboxylic acid (S-tetrahydro-furan-2-ylmethyl)-amide] | 1 to 10
3 | O=C(NC[C@@H]1CCCO1)c1cc(-c2cncn2-c2cccc(F)c2F)c[nH]1 (stereo in doubt) [Compound I-16, 4-[3-(2,3-Difluoro-phenyl)-3H-imidazol-4-yl]-1H-pyrrole-2-carboxylic acid (tetrahydro-furan-2-ylmethyl)-amide] | 1 to 10
4 | O=C(c1cc(-c2nncn2-c2cccc(F)c2F)c[nH]1)N1CC=CC1 [Compound I-37, (4-(4-(2,3-difluorophenyl)-4H-1,2,4-triazol-3-yl)-1H-pyrrol-2-yl)(2H-pyrrol-1(5H)-yl)methanone] | > 10
5 | O=C(NC[C@@H]1CCCO1)c1cc(-c2cnoc2-c2cccc(F)c2F)c[nH]1 [Compound I-4, 4-[5-(2,3-Difluoro-phenyl)-isoxazol-4-yl]-1H-pyrrole-2-carboxylic acid (S-tetrahydro-furan-2-ylmethyl)-amide] | 1 to 10

Next, values leading:

Row | Ki [µM] | Structure (SMILES)
6 | 1 to 10 | O=C(NC[C@@H]1CCCO1)c1cc(-c2nncn2-c2cccc(Cl)c2Cl)c[nH]1 [Compound I-39]
7 | 1 to 10 | O=C(c1cc(-c2[nH]nnc2-c2cccc(F)c2F)c[nH]1)N1CCCC1 [Compound I-47]
8 | 1 to 10 | O=C(NC[C@@H]1CCCO1)c1cc(-c2sncc2-c2cccc(F)c2F)c[nH]1 [Compound I-46, 4-(4-(2,3-difluorophenyl)isothiazol-5-yl)-N-(((S)-tetrahydrofuran-2-yl)methyl)-1H-pyrrrole-2-carboxamide]
9 | 1 to 10 | O=C(NCCCn1ccnc1)c1cc(-c2nncn2-c2cccc(Cl)c2Cl)c[nH]1 [Compound I-41]
10 | > 10 | O=C(NCCCn1ccnc1)c1cc(-n2cnnc2-c2cccc(F)c2F)c[nH]1 [Compound I-44, N-(3-(1H-imidazol-1-yl)propyl)-4-(3-(2,3-difluorophenyl)-4H-1,2,4-triazol-4-yl)-1H-pyrrole-2-carboxamide]
11 | 1 to 10 | O=C(c1cc(-n2nnnc2-c2cccc(F)c2F)c[nH]1)N1CC=CC1 [Compound I-38, (4-(5-(2,3-difluorophenyl)-1H-tetrazol-1-yl)-1H-pyrrol-2-yl)(2H-pyrrol-1(5H)-yl)methanone]
12 | 1 to 10 | O=C(c1cc(-c2nncn2-c2cccc(Cl)c2Cl)c[nH]1)N1CC=CC1 [Compound I-40]
